Tests used:
[1] = test system: MCF-7/Dox cell, which is MCF-7 expressing p-glycoprotein; details: enhancement of anticancer activity of paclitaxel against MCF7/Dox; ED50 of paclitaxel alone / ED50 with 50 nM test compound
Procedure: The cells were subcultured in 5% FBS (fetal bovine serum)/RPMI1640 medium supplemented with glutamine 2 mmol, sodium bicarbonate 3.7 g/L and gentamicin 10 mg/L at 37° C. in 5% CO2 incubator under 100% humidity, and collected using a 0.25% trypsin solution containing 3 mM 1,2-cyclohenxandiamine tetraacetic acid.
The collected cells were plated on a 96 well flat-bottomed plate at a density of 2×10^3 cells/well, and incubated in the same medium for 24 hours. Paclitaxel, an anticancer agent, was diluted with the same medium to obtain 10^−11˜10^−6 M test solutions. […] After incubating for 72 hours, the culture medium was removed, each well was treated with 10% trichloroacetic acid for 1 hour to fix the cells, washed with water, and dried at room temperature. After adding a dyeing solution containing 1% acetic acid with 0.4% SRB (sulforhodamine B) thereto, the wells were kept at room temperature for 30 min, and washed with 1% acetic acid to remove remaining SRB. […] Also, the enhancement of the anticancer activity of paclitaxel against MCF7/Dox (resistant cancer cells) was measured by determining ED^PAC50/ED50, wherein ED^PAC50 is the value determined for the case of paclitaxel alone.

[2] = In vivo absorption of orally administered paclitaxel; details: rats, oral 20 mg/kg paclitaxel with the compound (Control: with vehicle)
Procedure: In order to investigate the activity of the inventive compounds prepared in Examples, in vivo absorption tests were carried out as follows.
Blood samples were taken directly from the heart of each rat before and 1, 2, 4, 6, 8 and 24 hours after the administration.
Each of blood samples was centrifuged at 12,000 rpm to obtain a serum sample, 200 μl of which was mixed with 400 μl of acetonitrile (an internal standard) and the mixture was shaken to obtain an extract. The extract was centrifuged at 12,000 rpm, 4° C. for 5 min to obtain a supernatant.

COc1cc2c(cc1OC)CN(CCc1ccc(-n3nnc(-c4cc(OC)c(OC)cc4NC(=O)c4cnc5ccccc5c4)n3)cc1)CC2 [Example 1, quinoline-3-carboxylic acid [2-(2-4-[2-(6,7-dimethoxy-3,4-dihydro-1H-isoquinolin-2-yl)-ethyl]-phenyl-2H-tetrazol-5-yl)-4,5-dimethoxy-phenyl]-amide]
ED50^PAC/ED50 [1]: 20.3
AUC (ng · hr/ml), area under the curve of blood concentration till 24 hours [2]: 3,032 ± 1,108 ng · hr/ml
Cmax (ng/ml), maximum blood concentration [2]: 1,172 ± 433 ng/ml
Tmax (hr), time at the maximum blood concentration [2]: 1.0 h

COc1cc2c(cc1OC)CN(CCc1ccc(-n3nnc(-c4cc(OC)c(OC)cc4NC(=O)c4cc(=O)c5ccccc5o4)n3)cc1)CC2 [Example 21, 4-oxo-4H-chromen-2-carboxylic acid [2-(2-{4-[2-(6,7-dimethoxy-3,4-dihydro-1H-isoquinolin-2-yl)-ethyl]-phenyl}-2H-tetrazol-5-yl)-4,5-dimethoxy-phenyl]-amide]
ED50^PAC/ED50 [1]: 60.1

COc1cc2c(cc1OC)CN(CCc1ccc(-n3nnc(-c4cc(OC)c(OC)cc4NC(=O)c4cc(=O)c5cc(C)ccc5o4)n3)cc1)CC2 [Example 22, 6-methyl-4-oxo-4H-chromene-2-carboxylic acid [2-(2-{4-[2-(6,7-dimethoxy-3,4-dihydro-1H-isoquinolin-2-yl)-ethyl]-phenyl}-2H-tetrazol-5-yl)-4,5-dimethoxy-phenyl]-amide]
ED50^PAC/ED50 [1]: 73.4

COc1cc2c(cc1OC)CN(CCc1ccc(-n3nnc(-c4cc(OC)c(OC)cc4NC(=O)c4cc(=O)c5c(OC)cccc5o4)n3)cc1)CC2 [Example 23, 5-methoxy-4-oxo-4H-chromene-2-carboxylic acid [2-(2-{4-[2-(6,7-dimethoxy-3,4-dihydro-1H-isoquinolin-2-yl)-ethyl]-phenyl}-2H-tetrazol-5-yl)-4,5-dimethoxy-phenyl]-amide]
ED50^PAC/ED50 [1]: 49.9

COc1cc2c(cc1OC)CN(CCc1ccc(-n3nnc(-c4cc(OC)c(OC)cc4NC(=O)c4cc(=O)c5cc(F)ccc5o4)n3)cc1)CC2 [Example 24, 6-fluoro-4-oxo-4H-chromene-2-carboxylic acid [2-(2-{4-[2-(6,7-dimethoxy-3,4-dihydro-1H-isoquinolin-2-yl)-ethyl]-phenyl}-2H-tetrazol-5-yl)-4,5-dimethoxy-phenyl]-amide]
ED50^PAC/ED50 [1]: 39.3

COc1cc2c(cc1OC)CN(CCc1ccc(-n3nnc(-c4cc(OC)c(OC)cc4NC(=O)c4cc(=O)c5cc(Br)ccc5o4)n3)cc1)CC2 [Example 25, 6-bromo-4-oxo-4H-chromene-2-carboxylic acid [2-(2-{4-[2-(6,7-dimethoxy-3,4-dihydro-1H-isoquinolin-2-yl)-ethyl]-phenyl}-2H-tetrazol-5-yl)-4,5-dimethoxy-phenyl]-amide]
ED50^PAC/ED50 [1]: 28.6

COc1cc2c(cc1OC)CN(CCc1ccc(-n3nnc(-c4cc(OC)c(OC)cc4NC(=O)c4cnnc5ccccc45)n3)cc1)CC2 [Example 26, cinoline-4-carboxylic acid [2-(2-{4-[2-(6,7-dimethoxy-3,4-dihydro-1H-isoquinolin-2-yl)-ethyl]-phenyl}-2H-tetrazol-5-yl)-4,5-dimethoxy-phenyl]-amide]
ED50^PAC/ED50 [1]: 24.0

COc1cc2c(cc1OC)CN(CCc1ccc(-n3nnc(-c4cc(OC)c(OC)cc4NC(=O)c4coc5ccccc5c4=O)n3)cc1)CC2 [Example 27, 4-oxo-4H-chromene-3-carboxylic acid [2-(2-{4-[2-(6,7-dimethoxy-3,4-dihydro-1H-isoquinolin-2-yl)-ethyl]-phenyl}-2H-tetrazol-5-yl)-4,5-dimethoxy-phenyl]-amide]
ED50^PAC/ED50 [1]: 2.1

COc1cc2c(cc1OC)CN(CCc1ccc(-n3nnc(-c4cc(F)c(F)cc4NC(=O)c4cnc5ccccc5c4)n3)cc1)CC2 [Example 28, quinoline-3-carboxylic acid [2-(2-{4-[2-(6,7-dimethoxy-3,4-dihydro-1H-isoquinolin-2-yl)-ethyl]-phenyl}-2H-tetrazol-5-yl)-4,5-difluoro-phenyl]-amide]
ED50^PAC/ED50 [1]: 19.9

COc1cc2c(cc1OC)CN(CCSc1ccc(-n3nnc(-c4cc(OC)c(OC)cc4NC(=O)c4cnc5ccccc5c4)n3)cc1)CC2 [Example 29, quinoline-3-carboxylic acid [2-(2-{4-[2-(6,7-dimethoxy-3,4-dihydro-1H-isoquinolin-2-yl)-ethylsulfanyl]-phenyl}-2H-tetrazol-5-yl)-4,5-dimethoxy-phenyl]-amide]
ED50^PAC/ED50 [1]: 21.3

COc1cc2c(cc1OC)CN(CCc1ccc(-n3nnc(-c4cc(OC)c(OC)cc4NC(=O)c4cnc5ccccc5c4)n3)cc1)CC2 [Example 30]
ED50^PAC/ED50 [1]: 2.6

COc1cc2c(cc1OC)CN(CCc1ccc(-n3nnc(-c4cc(OC)c(OC)cc4NC(=O)C=Cc4ccccc4)n3)cc1)CC2 [Example 31, N-[2-(2-{4-[2-(6,7-dimethoxy-3,4-dihydro-1H-isoquinolin-2-yl)-ethyl]-phenyl}-2H-tetrazol-5-yl)-4,5-dimethoxy-phenyl]-3-phenyl-acrylamide]
ED50^PAC/ED50 [1]: 2.7

COc1cc2c(cc1OC)CN(CCc1ccc(-n3nnc(-c4cc(OC)c(OC)cc4NC(=O)C=Cc4cnc5ccccc5c4)n3)cc1)CC2 [Example 32, N-[2-(2-{4-[2-(6,7-dimethoxy-3,4-dihydro-1H-isoquinolin-2-yl)-ethyl]-phenyl}-2H-tetrazol-5-yl)-4,5-dimethoxy-phenyl]-3-quinolin-3-yl-acrylamide]
ED50^PAC/ED50 [1]: 19.2

COc1ccc(CCN(C)CCc2ccc(-n3nnc(-c4cc(OC)c(OC)cc4NC(=O)c4cc(=O)c5ccccc5o4)n3)cc2)cc1OC [Example 33, 4-oxo-4H-chromene-2-carboxylic acid (2-{2-[4-(2-{[2-(3,4-dimethoxy-phenyl)-ethyl]-methyl-amino}-ethyl)-phenyl]-2H-tetrazol-5-yl}-4,5-dimethoxy-phenyl)-amide]
ED50^PAC/ED50 [1]: 23.0

— patent publication US7625926B2, “P-glycoprotein inhibitor, method for preparing the same and pharmaceutical composition comprising the same” (Hanmi Pharm. Co., Ltd, priority 2003, dated 2009)
